From patent US8765054B2, “Process for treatment of residual nucleic acids present on the surface of laboratory consumables” (EMD Millipore Corporation, priority 2010, dated 2014)

Key:
[1] = test system: Germs (E. coli, P. aeruginosa); assay: Residual DNA contained in microorganisms (germs) on tubes after treatment, determined by PCR; assay type: cell-based
Method: (§1) Several consumables consisting of 1.5 ml polypropylene tubes were contaminated in parallel with a known quantity of DNA, RNA or microorganisms. These consumables were then gamma-sterilized (doses from 0 to 60 kGy) or treated with ethylene oxide in gaseous phase. After sterilization, the presence of residual nucleic acids is determined by PCR (for DNA) and TMA (for RNA) and compared with an unsterilized control consumable.
(§2) Several consumables of the same type as those used in protocol 1 were contaminated with the same known quantity of DNA, RNA or microorganisms. These consumables were then treated by a treatment with hydrogen peroxide made in liquid solution (respectively 3% and 30% H2O2). The hydrogen peroxide is evaporated at the end of the process by virtue of a step of drying under vacuum at a temperature of 60° C. After treatment, the presence of residual nucleic acids was determined by PCR (for DNA) and TMA (for RNA) and compared with an untreated sample.
(§3) Several consumables of the same type as those used in protocol 1 were contaminated with the same known quantity of DNA, RNA or microorganisms. A proportion of those consumables was then treated according to the invention with gaseous ethylene oxide followed by the 3% or 30% hydrogen peroxide. A further proportion was treated with gamma radiation instead of with the gaseous ethylene oxide then with hydrogen peroxide. In both cases, the hydrogen peroxide was evaporated by virtue of a vacuum drying step at a temperature of 60° C. After treatment, the presence of residual nucleic acids was determined by PCR (for DNA) and TMA (for RNA) and compared with an untreated sample.

[2] = test system: Germs (P. acnes, P. aeruginosa); assay: Residual RNA contained in microorganisms (germs) on tubes after treatment, determined by TMA; assay type: cell-based
Method: as §1, §2, §3

[3] = test system: DNA (E. coli, P. aeruginosa); assay: Residual free DNA on 1.5 ml polypropylene tubes after treatment, determined by PCR
Method: as §1, §2

[4] = test system: RNA (P. acnes, P. aeruginosa); assay: Residual free RNA on 1.5 ml polypropylene tubes after treatment, determined by TMA; parameters: key to the marks not given beside the values
Method: as §1, §2

[5] = Protocol 2, liquid H2O2, minimum time of action 40 min at 60° C.

SMILES | Effectiveness of the residual nucleic acid treatment, Germs (PCR) ([1]; Protocol 1, DNA in microorganisms, E. coli, P. aeruginosa) | Effectiveness of the residual nucleic acid treatment, Germs (TMA) ([2]; Protocol 1, RNA in microorganisms, P. acnes, P. aeruginosa) | Effectiveness of the residual nucleic acid treatment, DNA (PCR) ([3]; Protocol 1, free DNA, E. coli, P. aeruginosa, vs unsterilized control) | Effectiveness of the residual nucleic acid treatment, RNA (TMA) ([4]; Protocol 1, free RNA, P. acnes, P. aeruginosa, vs unsterilized control) | Effectiveness of the residual nucleic acid treatment, Germs (PCR) [1, 5] | Effectiveness of the residual nucleic acid treatment, Germs (TMA) [2, 5] | Effectiveness of the residual nucleic acid treatment, DNA (PCR) [3, 5] | Effectiveness of the residual nucleic acid treatment, RNA (TMA) [4, 5]
C1CO1 [EO, ethylene oxide] | + | − | + | +++ |  |  |  | 
OO [H2O2 3%, hydrogen peroxide] |  |  |  |  | − | − | ++ | ++
OO [H2O2 30%, hydrogen peroxide] |  |  |  |  | − | − | +++ | +++
